{"source": "patent US20150148551A1", "about": "“GENISTEIN FOR REDUCING LEVELS OF STORAGE COMPOUNDS IN THE TREATMENT AND/OR PREVENTION OF LYSOSOMAL STORAGE DISEASES (LSDS)” (3G THERAPEUTICS, INC., priority 2012, published 2015)", "format_in_all_cases": "cell-based, human", "key": {"[1]": {"tested_on": "GAPDH", "experiment": "DNA microarray, GAPDH reference gene expression in fibroblasts exposed to genistein", "method": "(§1) The experiments were conducted to characterise the transcriptomic profile of human fibroblast cells exposed to genistein, and in particular to determine the expression of genes encoding lysosomal enzymes involved in metabolism (i.e. synthesis and degradation) of organic substances. The absence or deficiency of these enzymes' activity is responsible for occurrence of various lysosomal storage diseases (LSD) (including MPS). The tested hypothesis assumed that genistein influences the expression of many genes, among which there are genes coding for enzymes required in metabolism of compounds, which are pathologically stored in LSD. The results provide important information regarding genistein action on the molecular level within the range of gene expression modulation by this substance. The experiment was conducted in biological quintuplicates. Human dermal fibroblasts (HDFa) were exposed in vitro for 1, 24 or 48 hours to: 30, 60 or 100 μM of genistein; 0.05% DMSO (K1); or were untreated (control cells) (K2), and total RNA was isolated and analysed.\n(§2) Fibroblast cells were grown in Dulbecco (DMEM) medium supplemented with 10% fetal bovine serum (FBS) with the addition of 1% antibiotics and anti-fungal agents at 37° C. in humidified atmosphere of 5% CO2, until the required confluency was obtained.\n(§3) To determine the effect of tested compound on the transcriptom of the fibroblast cells, the growth medium was replaced with fresh medium, either non-supplemented (0.05% DMSO), or containing genistein (30, 60 or 100 μM, in 0.05% DMSO). The exposure was done for 1, 24 or 48 hours.\n(§4) Total RNA was isolated from fibroblasts using High Pure RNA Isolation Kit according to the protocol and then it was quantitatively evaluated using Quant-It™ RiboGreen® Assay Kit.\n(§5) Biotinylated cRNA was prepared using Ambion Total PrepAmp Kit for Illumina arrays.\n(§6) Standard hybridization and quantitative image analysis procedures—Illumina hybridization protocol and Illumina scanning protocol, were used.\n(§7) Processing of the results was done during data definition, including: background correction (using background subtraction method), normalization (using quantile normalization algorithm with Illumina GenomeStudio software package: gene expression module version 1.9.0) and summarization (using method, which sums the values of signal intensities from a set of probes)."}, "[2]": {"tested_on": "EXT1", "experiment": "DNA microarray, EXT1 expression in fibroblasts exposed to genistein", "method": "as §1, §2, §3, §4, §5, §6, §7"}, "[3]": {"tested_on": "ST3GAL4", "experiment": "DNA microarray, ST3GAL4 expression in fibroblasts exposed to genistein", "method": "as §1, §2, §3, §4, §5, §6, §7"}, "[4]": {"tested_on": "NAGLU", "experiment": "DNA microarray, NAGLU expression in fibroblasts exposed to genistein", "conditions": "for NAGLU fold change Average: 48 h vs DMSO", "method": "as §1, §2, §3, §4, §5, §6, §7"}, "[5]": {"tested_on": "HYAL3", "experiment": "DNA microarray, HYAL3 expression in fibroblasts exposed to genistein", "conditions": "for HYAL3 fold change Average: 48 h vs DMSO", "method": "as §1, §2, §3, §4, §5, §6, §7"}, "[6]": {"tested_on": "NPC1", "experiment": "DNA microarray, NPC1 expression in fibroblasts exposed to genistein", "conditions": "for NPC1 fold change Average: 48 h vs DMSO", "method": "as §1, §2, §3, §4, §5, §6, §7"}, "[7]": {"tested_on": "CLN5", "experiment": "DNA microarray, CLN5 expression in fibroblasts exposed to genistein", "method": "as §1, §2, §3, §4, §5, §6, §7"}}}
{"compound": "O=c1c(-c2ccc(O)cc2)coc2cc(O)cc(O)c12", "note": "[genistein, 4′,5,7-trihydroxy-3-phenylchromen-4-one]", "values": [{"measurement": "GAPDH fold change Average 1h30/1hK1", "setting": "[1]; 30 μM, 1 h vs 0.05% DMSO", "result": 0.9592, "unit": "fold change"}, {"measurement": "GAPDH fold change Average 24h30/24hK1", "setting": "[1]; 30 μM, 24 h vs 0.05% DMSO", "result": 0.93, "unit": "fold change"}, {"measurement": "GAPDH fold change Average 48h30/48hK1", "setting": "[1]; 30 μM, 48 h vs 0.05% DMSO", "result": 0.9412, "unit": "fold change"}, {"measurement": "GAPDH fold change Average 1h60/1hK1", "setting": "[1]; 60 μM, 1 h vs 0.05% DMSO", "result": 0.9817, "unit": "fold change"}, {"measurement": "GAPDH fold change Average 24h60/24hK1", "setting": "[1]; 60 μM, 24 h vs 0.05% DMSO", "result": 0.8905, "unit": "fold change"}, {"measurement": "GAPDH fold change Average 48h60/48hK1", "setting": "[1]; 60 μM, 48 h vs 0.05% DMSO", "result": 0.8088, "unit": "fold change"}, {"measurement": "GAPDH fold change Average 1h100/1hK1", "setting": "[1]; 100 μM, 1 h vs 0.05% DMSO", "result": 0.9385, "unit": "fold change"}, {"measurement": "GAPDH fold change Average 24h100/24hK1", "setting": "[1]; 100 μM, 24 h vs 0.05% DMSO", "result": 0.9556, "unit": "fold change"}, {"measurement": "GAPDH fold change Average 48h100/48hK1", "setting": "[1]; 100 μM, 48 h vs 0.05% DMSO", "result": 0.8652, "unit": "fold change"}, {"measurement": "EXT1 fold change Average 1h30/1hK1", "setting": "[2]; 30 μM, 1 h vs 0.05% DMSO", "result": 0.9138, "unit": "fold change"}, {"measurement": "EXT1 fold change Average 24h30/24hK1", "setting": "[2]; 30 μM, 24 h vs 0.05% DMSO", "result": 0.8048, "unit": "fold change"}, {"measurement": "EXT1 fold change Average 48h30/48hK1", "setting": "[2]; 30 μM, 48 h vs 0.05% DMSO", "result": 0.9291, "unit": "fold change"}, {"measurement": "EXT1 fold change Average 1h60/1hK1", "setting": "[2]; 60 μM, 1 h vs 0.05% DMSO", "result": 0.9881, "unit": "fold change"}, {"measurement": "EXT1 fold change Average 24h60/24hK1", "setting": "[2]; 60 μM, 24 h vs 0.05% DMSO", "result": 0.7005, "unit": "fold change"}, {"measurement": "EXT1 fold change Average 48h61/48hK1", "setting": "[2]; 60 μM, 48 h vs 0.05% DMSO", "result": 0.7648, "unit": "fold change"}, {"measurement": "EXT1 fold change Average 1h100/1hK1", "setting": "[2]; 100 μM, 1 h vs 0.05% DMSO", "result": 0.8358, "unit": "fold change"}, {"measurement": "EXT1 fold change Average 24h100/24hK1", "setting": "[2]; 100 μM, 24 h vs 0.05% DMSO", "result": 0.6022, "unit": "fold change"}, {"measurement": "EXT1 fold change Average 48h100/48hK1", "setting": "[2]; 100 μM, 48 h vs 0.05% DMSO", "result": 0.689, "unit": "fold change"}, {"measurement": "ST3GAL4 fold change Average 1h30/1hK1", "setting": "[3]; 30 μM, 1 h vs 0.05% DMSO", "result": 0.9885, "unit": "fold change"}, {"measurement": "ST3GAL4 fold change Average 24h30/24hK1", "setting": "[3]; 30 μM, 24 h vs 0.05% DMSO", "result": 0.782, "unit": "fold change"}, {"measurement": "ST3GAL4 fold change Average 48h30/48hK1", "setting": "[3]; 30 μM, 48 h vs 0.05% DMSO", "result": 1.065, "unit": "fold change"}, {"measurement": "ST3GAL4 fold change Average 1h60/1hK1", "setting": "[3]; 60 μM, 1 h vs 0.05% DMSO", "result": 0.9205, "unit": "fold change"}, {"measurement": "ST3GAL4 fold change Average 24h60/24hK1", "setting": "[3]; 60 μM, 24 h vs 0.05% DMSO", "result": 0.9205, "unit": "fold change"}, {"measurement": "ST3GAL4 fold change Average 48h61/48hK1", "setting": "[3]; 60 μM, 48 h vs 0.05% DMSO", "result": 0.9931, "unit": "fold change"}, {"measurement": "ST3GAL4 fold change Average 1h100/1hK1", "setting": "[3]; 100 μM, 1 h vs 0.05% DMSO", "result": 0.8637, "unit": "fold change"}, {"measurement": "ST3GAL4 fold change Average 24h100/24hK1", "setting": "[3]; 100 μM, 24 h vs 0.05% DMSO", "result": 0.6646, "unit": "fold change"}, {"measurement": "ST3GAL4 fold change Average 48h100/48hK1", "setting": "[3]; 100 μM, 48 h vs 0.05% DMSO", "result": 0.8911, "unit": "fold change"}, {"measurement": "NAGLU fold change Average 1h30/1hK1", "setting": "[4]; 30 μM, 1 h vs 0.05% DMSO", "result": 1.055, "unit": "fold change"}, {"measurement": "NAGLU fold change Average", "setting": "[4]; 30 μM", "result": 1.1022, "unit": "fold change"}, {"measurement": "NAGLU fold change Average 1h60/1hK1", "setting": "[4]; 60 μM, 1 h vs 0.05% DMSO", "result": 1.061, "unit": "fold change"}, {"measurement": "NAGLU fold change Average", "setting": "[4]; 60 μM", "result": 1.231, "unit": "fold change"}, {"measurement": "NAGLU fold change Average 1h100/1hK1", "setting": "[4]; 100 μM, 1 h vs 0.05% DMSO", "result": 1.037, "unit": "fold change"}, {"measurement": "NAGLU fold change Average", "setting": "[4]; 100 μM", "result": 1.303, "unit": "fold change"}, {"measurement": "HYAL3 fold change Average 1h30/1hK1", "setting": "[5]; 30 μM, 1 h vs 0.05% DMSO", "result": 1.1887, "unit": "fold change"}, {"measurement": "HYAL3 fold change Average", "setting": "[5]; 30 μM", "result": 0.8605, "unit": "fold change"}, {"measurement": "HYAL3 fold change Average", "setting": "[5]; 60 μM", "result": 0.9492, "unit": "fold change"}, {"measurement": "HYAL3 fold change Average 1h100/1hK1", "setting": "[5]; 100 μM, 1 h vs 0.05% DMSO", "result": 1.141, "unit": "fold change"}, {"measurement": "HYAL3 fold change Average", "setting": "[5]; 100 μM", "result": 1.001, "unit": "fold change"}, {"measurement": "NPC1 fold change Average 1h30/1hK1", "setting": "[6]; 30 μM, 1 h vs 0.05% DMSO", "result": 0.9973, "unit": "fold change"}, {"measurement": "NPC1 fold change Average", "setting": "[6]; 30 μM", "result": 1.567, "unit": "fold change"}, {"measurement": "NPC1 fold change Average 1h60/1hK1", "setting": "[6]; 60 μM, 1 h vs 0.05% DMSO", "result": 1.035, "unit": "fold change"}, {"measurement": "NPC1 fold change Average", "setting": "[6]; 60 μM", "result": 1.875, "unit": "fold change"}, {"measurement": "NPC1 fold change Average 1h100/1hK1", "setting": "[6]; 100 μM, 1 h vs 0.05% DMSO", "result": 0.9825, "unit": "fold change"}, {"measurement": "NPC1 fold change Average", "setting": "[6]; 100 μM", "result": 2.269, "unit": "fold change"}, {"measurement": "CLN5 fold change Average 1h30/1hK1", "setting": "[7]; 30 μM, 1 h vs 0.05% DMSO", "result": 1.0505, "unit": "fold change"}, {"measurement": "CLN5 fold change Average", "setting": "[7]; 30 μM, 48 h vs DMSO", "result": 1.3471, "unit": "fold change"}, {"measurement": "CLN5 fold change Average 1h60/1hK1", "setting": "[7]; 60 μM, 1 h vs 0.05% DMSO", "result": 1.028, "unit": "fold change"}]}
